# Assay results published in paper PMC10648349, “Aromatic Diboronic Acids as Effective KPC/AmpC Inhibitors” (Molecules, 2023).
# How the values were obtained:
# [1] = tested on: E. coli 76 KPC-2-positive; assay: checkerboard microdilution, antibiotic plus tested agent; assay type: cell-based, Escherichia coli
# Procedure, shortened: (§1)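 β-lactam 1–64 mg/L × agent/PBA 4–16 mg/L checkerboard; meropenem vs carbapenemase producers, ceftazidime vs AmpC producer; imipenem, ertapenem added for selected agents. Readout: combination MICs, FICI (average and lowest); off-scale MICs taken as next doubling.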
# [2] = tested on: K. pneumoniae ATCC BAA-1705 KPC-2-positive; assay: as above; assay type: cell-based, Klebsiella pneumoniae
# Procedure, shortened: as §1
# [3] = tested on: K. pneumoniae 83 KPC-3-positive, CTX-M-3-positive; assay: as above; assay type: cell-based, Klebsiella pneumoniae
# Procedure, shortened: as §1
# [4] = tested on: K. pneumoniae 81 KPC-3-positive; assay: as above; assay type: cell-based, Klebsiella pneumoniae
# Procedure, shortened: as §1
# [5] = tested on: KPC producers; assay: microdilution with carbapenems; assay type: cell-based
# Description: (§2) To examine the ability of tested agents to inhibit various carbapenemases and AmpC-enzymes, their synergy with antibiotics against β-lactamase-producing strains was assessed by checkerboard microdilution assay, with slight modification. Checkerboards were prepared in microtiter plates, with seven two-fold dilutions of β-lactams (1–64 mg/L) in the rows and three two-fold dilutions of tested agents and PBA (4–16 mg/L) in the columns. Tested agents’ concentrations were limited to the concentrations at which the newest commercially available BLIs (vaborbactam, relebactam, and avibactam) are used in susceptibility testing. Plates were inoculated and incubated as in the MIC microdilution assay. Parallel, MICs of tested agents and PBA alone were determined by the microdilution assay. Following the incubation, antibiotic MICs in the presence of each agent’s concentration were determined. Moreover, for the first well without growth found in each checkerboard row and column along the growth/non-growth interface, the fractional inhibitory concentration index (FICI) was calculated using the formula below:FICI = [(MIC of antibiotic in combination)/(MIC of antibiotic alone)] + [(MIC of the tested agent in combination)/(MIC of tested agent alone)].
# For calculations, all off-scale MICs were converted to the next-highest doubling concentration. Subsequently, both the average and the lowest FICI were interpreted. The interpretation was as follows: FICI ≤ 0.5, synergy; 0.5 < FICI ≤ 4, indifference and FICI > 4, antagonism. Primarily, examined combinations consisted of meropenem (Pol-Aura, Morag, Poland) plus tested agents against carbapenemases-producing strains and ceftazidime (Pol-Aura, Morag, Poland) plus tested agents against AmpC-producing strains. For agents that reduced meropenem MIC at least 4-fold for at least two tested strains, similar assays were performed with imipenem (Pol-Aura, Morag, Poland) and ertapenem (Pol-Aura, Morag, Poland).
# [6] = tested on: E. coli 82 TR(pl 81), transformant carrying blaKPC-3; assay: whole cell assay, meropenem MIC with tested agent; assay type: cell-based, Escherichia coli
# Description: as §2
# [7] = tested on: E. coli DH5α; assay: whole cell assay, meropenem MIC with tested agent; assay type: cell-based, Escherichia coli; conditions: for MIC: Escherichia coli, read-out: MIC of agent alone; for MIC of meropenem in combination with agent: agent 16 mg/L
# Description: as §2
# [8] = tested on: K. pneumoniae ATCC 700603 ESBL-positive; assay: combination disc test CDT-ESBL; assay type: cell-based; conditions: Klebsiella pneumoniae, ATCC700603; agent 0.3 mg per disc; read-out: Diameter of inhibition zone, CAZ-30 disc with agent
# [9] = tested on: P. aeruginosa MUW 700 AmpC(+); assay: MIC of tested agent alone, microdilution; assay type: cell-based; conditions: Pseudomonas aeruginosa; read-out: MIC of agent alone
# Procedure, shortened: (§3)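 Checkerboard synergy testing crossed two-fold dilutions of the tested agents or PBA (4–16 mg/L) with β-lactam dilutions (1–64 mg/L), and antibiotic MICs were read at each agent level. FICI was derived from the interface wells. Separately, each agent's own MIC came from standard microdilution.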
# [10] = tested on: K. pneumoniae 83 KPC-3(+), CTX-M-3(+); assay: MIC of tested agent alone, microdilution; assay type: cell-based; conditions: Klebsiella pneumoniae; read-out: MIC of agent alone
# Procedure, shortened: as §3
# [11] = tested on: E. coli 77 CMY-2(+); assay: MIC of tested agent alone, microdilution; assay type: cell-based; conditions: Escherichia coli; read-out: MIC of agent alone
# Procedure, shortened: as §3
# [12] = tested on: E. coli 76 KPC-2(+); assay: MIC of tested agent alone, microdilution; assay type: cell-based; conditions: Escherichia coli; read-out: MIC of agent alone
# Procedure, shortened: as §3
# [13] = tested on: K. pneumoniae 81 KPC-3(+); assay: MIC of tested agent alone, microdilution; assay type: cell-based; conditions: Klebsiella pneumoniae; read-out: MIC of agent alone
# Procedure, shortened: as §3
# [14] = tested on: K. pneumoniae ATCC BAA-1705 KPC-2(+); assay: MIC of tested agent alone, microdilution; assay type: cell-based; conditions: Klebsiella pneumoniae, ATCCBAA1705; read-out: MIC of agent alone
# Procedure, shortened: as §3
# [15] = tested on: P. aeruginosa MUW 700 cAmpC-positive; assay: checkerboard microdilution, antibiotic plus tested agent; assay type: cell-based, Pseudomonas aeruginosa
# Procedure, shortened: as §1
# [16] = tested on: AmpC producers; assay: microdilution with ceftazidime; assay type: cell-based
# Procedure, shortened: as §1
smiles,measurement,setting,value
OB(O)c1ccc(B(O)O)cc1 [1a],Average FICI with ERT,[1],0.22
same,Average FICI with IMI,[1],0.30
same,Average FICI with MEM,[1],0.31
same,The lowest FICI with ERT,[1],0.15
same,The lowest FICI with IMI,[1],0.15
same,The lowest FICI with MEM,[1],0.15
same,Average FICI with ERT,[2],0.43
same,Average FICI with IMI,[2],0.43
same,Average FICI with MEM,[2],0.30
same,The lowest FICI with ERT,[2],0.27
same,The lowest FICI with IMI,[2],0.27
same,The lowest FICI with MEM,[2],0.15
same,Average FICI with ERT,[3],0.35
same,Average FICI with IMI,[3],0.35
same,Average FICI with MEM,[3],0.39
same,The lowest FICI with ERT,[3],0.26
same,The lowest FICI with IMI,[3],0.26
same,The lowest FICI with MEM,[3],0.15
same,Average FICI with ERT,[4],0.20
same,Average FICI with IMI,[4],0.22
same,Average FICI with MEM,[4],0.24
same,The lowest FICI with ERT,[4],0.08
same,The lowest FICI with IMI,[4],0.15
same,The lowest FICI with MEM,[4],0.08
same,"carbapenems' MIC reduction, up to",[5]; agent 4 mg/L,≤ 2 fold
same,"carbapenems' MIC reduction, up to",[5]; agent 8 mg/L,up to 8 fold
same,"ertapenem potentiation better than PBA, by up to",[5]; all KPC producers,up to 8 fold
same,MIC,"[6]; Escherichia coli, read-out: MIC of agent alone",> 400 µg/mL
same,MIC of meropenem in combination with agent,[6]; agent 4 mg/L,0.50 µg/mL
same,MIC of meropenem in combination with agent,[6]; agent 8 mg/L,0.25 µg/mL
same,MIC of meropenem in combination with agent,[6]; agent 16 mg/L,0.125 µg/mL
same,MIC,[7],> 400 µg/mL
same,MIC of meropenem in combination with agent,[7],0.016 µg/mL
same,zone of inhibition at 300 µg/disc,[8],17 mm
same,MIC,[9],> 400 µg/mL
same,MIC,[10],> 400 µg/mL
same,MIC,[11],> 400 µg/mL
same,MIC,[12],> 400 µg/mL
same,MIC,[13],> 400 µg/mL
same,MIC,[14],> 400 µg/mL
same,Average FICI with ceftazidime,[15],0.16
same,Interpretation of the average FICI with ceftazidime,[15],"S (FICI ≤ 0.5, synergy)"
same,Interpretation of the lowest FICI with ceftazidime,[15],"S (FICI ≤ 0.5, synergy)"
same,The lowest FICI with ceftazidime,[15],0.08
"OB(O)c1ccccc1B(O)O [3a, phenylene-1,2-diboronic acid]",Average FICI with ERT,[1],0.23
same,Average FICI with IMI,[1],0.13
same,Average FICI with MEM,[1],0.17
same,The lowest FICI with ERT,[1],0.17
same,The lowest FICI with IMI,[1],0.10
same,The lowest FICI with MEM,[1],0.10
same,Average FICI with ERT,[2],0.32
same,Average FICI with IMI,[2],0.19
same,Average FICI with MEM,[2],0.32
same,The lowest FICI with ERT,[2],0.17
same,The lowest FICI with IMI,[2],0.15
same,The lowest FICI with MEM,[2],0.17
same,Average FICI with ERT,[3],0.17
same,Average FICI with IMI,[3],0.17
same,Average FICI with MEM,[3],0.13
same,The lowest FICI with ERT,[3],0.10
same,The lowest FICI with IMI,[3],0.10
same,The lowest FICI with MEM,[3],0.06
same,Average FICI with ERT,[4],0.14
same,Average FICI with IMI,[4],0.13
same,Average FICI with MEM,[4],0.10
same,The lowest FICI with ERT,[4],0.07
same,The lowest FICI with IMI,[4],0.10
same,The lowest FICI with MEM,[4],0.07
same,"ceftazidime MIC reduction, up to",[16]; agent 4 mg/L,≤ 2 fold
same,"ceftazidime MIC reduction, up to",[16]; agent 8 mg/L,up to 4 fold
same,"ceftazidime MIC reduction, up to",[16]; agent 16 mg/L,≤ 8 fold
same,"carbapenems' MIC reduction, up to",[5]; agent 4 mg/L,≤ 8 fold
same,"carbapenems' MIC reduction, up to",[5]; agent 8 mg/L,up to 16 fold
same,"carbapenems' MIC reduction, up to",[5]; agent 16 mg/L,up to 64 fold
same,fractional inhibitory concentrations indices with carbapenems,[5]; checkerboard assays,0.1–0.32
same,MIC of meropenem in combination with agent,[6]; agent 4 mg/L,0.50 µg/mL
same,meropenem MIC reduction,[6]; agent 4 mg/L,4 fold
same,MIC of meropenem in combination with agent,[6]; agent 8 mg/L,0.125 µg/mL
same,meropenem MIC reduction,[6]; agent 8 mg/L,16 fold
same,MIC of meropenem in combination with agent,[6]; agent 16 mg/L,0.062 µg/mL
same,meropenem MIC reduction,[6]; agent 16 mg/L,32 fold
same,MIC,[7],400 µg/mL
same,MIC of meropenem in combination with agent,[7],0.016 µg/mL
same,zone of inhibition at 300 µg/disc,[8],18 mm
same,MIC,[9],400 µg/mL
same,MIC,[10],400 µg/mL
same,MIC,[11],400 µg/mL
same,MIC,[12],400 µg/mL
same,MIC,[13],400 µg/mL
same,MIC,[14],400 µg/mL
same,Average FICI with ceftazidime,[15],0.61
same,Interpretation of the average FICI with ceftazidime,[15],"I (0.5 < FICI ≤ 4, indifference)"
same,Interpretation of the lowest FICI with ceftazidime,[15],"S (FICI ≤ 0.5, synergy)"
same,The lowest FICI with ceftazidime,[15],0.29
